Assay results as given in patent US6039950A, “Pharmaceutical grade saw palmetto” (priority 1997, dated 2000).
Where “and” joins values, the source holds several entries; their conditions need not be identical. Identical values can stand only once. Like-named read-outs stand apart in the source and are kept apart here. Numbered stars: 1 amine (or outer) side, 2 acyl side, 3 side chain; on linkers, the order of the positions; unused ones are H or OH. Bridge positions count the residues as written; N and C are the ends. Square brackets hold non-standard residues; d marks the D form. Peptide text beside a SMILES is read from it. I, II: the chains in the order shown. Actinocin(9to1) = Cc1c2oc3c(C)ccc(C(=O)[*:1])c3nc-2c(C(=O)[*:2])c(N)c1=O; NMeV = CN[C@H](C(=O)O)C(C)C; Sar = CNCC(=O)O

Legend:
smooth muscle = settings: cited from earlier work
Cyclooxygenase-2 = biological target: T1, Cyclooxygenase-2 (Ovis aries, UniProt P79208); experiment: biochemical; type: biochemical, sheep
T1 construct: Cyclooxygenase-2 (from sheep placenta); from tissue; host or cells: sheep placenta; assay by Panlabs
Experimental: The reaction is initiated by addition of arachidonic acid (100 mM) and terminated after 20 minutes incubation at 37° C. by addition of TCA.

Cyclooxygenase-1 = biological target: T2, Cyclooxygenase-1 (Ovis aries, UniProt P05979); experiment: biochemical; type: biochemical, ram; settings: for Cox1 activity: screened at 3×10^-4 M
T2 construct: Cyclooxygenase-1 (from ram seminal vesicles); from tissue; host or cells: ram seminal vesicles; assay by Panlabs
T2 sequence (P05979 25-600): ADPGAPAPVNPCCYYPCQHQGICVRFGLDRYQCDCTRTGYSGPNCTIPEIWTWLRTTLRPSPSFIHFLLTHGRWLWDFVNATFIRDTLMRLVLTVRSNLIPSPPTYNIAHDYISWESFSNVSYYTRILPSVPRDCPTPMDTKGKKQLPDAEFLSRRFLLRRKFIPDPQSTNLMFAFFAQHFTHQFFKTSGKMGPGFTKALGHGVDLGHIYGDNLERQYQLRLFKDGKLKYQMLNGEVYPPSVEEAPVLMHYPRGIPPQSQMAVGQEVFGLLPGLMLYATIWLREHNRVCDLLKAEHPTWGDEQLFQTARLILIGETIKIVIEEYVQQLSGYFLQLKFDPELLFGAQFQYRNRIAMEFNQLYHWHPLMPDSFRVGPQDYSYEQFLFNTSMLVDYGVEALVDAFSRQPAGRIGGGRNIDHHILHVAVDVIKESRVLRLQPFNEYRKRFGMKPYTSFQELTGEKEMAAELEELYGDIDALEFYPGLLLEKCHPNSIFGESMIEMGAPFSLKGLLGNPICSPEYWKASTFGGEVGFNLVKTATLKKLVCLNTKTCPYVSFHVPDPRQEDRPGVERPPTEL
Experimental: The reaction was initiated by addition of arachidonic acid (100 mM) and terminated after 20 minutes incubation at 37° C. by addition of trichloroacetic acid (TCA).

5-lipoxygenase = biological target: T3, 5-lipoxygenase (Rattus norvegicus, UniProt P12527); experiment: biochemical; settings: for 5-Lipo activity: screened at 3×10^-5 (30 μM)
T3 sequence (P12527 1-673): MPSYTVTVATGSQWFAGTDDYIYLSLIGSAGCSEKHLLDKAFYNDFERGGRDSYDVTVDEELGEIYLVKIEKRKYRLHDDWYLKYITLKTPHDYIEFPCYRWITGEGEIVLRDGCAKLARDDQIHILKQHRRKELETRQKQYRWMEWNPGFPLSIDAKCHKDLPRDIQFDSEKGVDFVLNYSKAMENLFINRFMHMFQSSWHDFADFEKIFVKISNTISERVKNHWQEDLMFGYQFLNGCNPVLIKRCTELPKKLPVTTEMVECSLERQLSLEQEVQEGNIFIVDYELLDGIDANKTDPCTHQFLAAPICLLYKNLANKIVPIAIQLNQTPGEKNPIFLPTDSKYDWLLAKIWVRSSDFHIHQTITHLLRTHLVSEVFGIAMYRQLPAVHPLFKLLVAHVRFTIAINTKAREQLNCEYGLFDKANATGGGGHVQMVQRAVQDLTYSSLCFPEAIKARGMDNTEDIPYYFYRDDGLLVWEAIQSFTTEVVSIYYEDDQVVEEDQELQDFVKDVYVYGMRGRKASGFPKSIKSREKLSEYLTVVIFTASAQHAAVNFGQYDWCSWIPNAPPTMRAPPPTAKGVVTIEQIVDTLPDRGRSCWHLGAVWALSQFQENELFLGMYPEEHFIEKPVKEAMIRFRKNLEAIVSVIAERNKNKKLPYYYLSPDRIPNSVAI

[1] = biological target: T4, rat prostatic androgen receptor (Rattus norvegicus, UniProt P15207); experiment: Rat prostatic nuclear androgen receptor binding assay against 3H-dihydrotestosterone
T4 construct: the ventral prostates were rapidly removed and placed in ice-cold "homogenization buffer"; from tissue; host or cells: washed nuclear suspension of ventral prostate from testosterone-treated male rats (Harlan)
T4 sequence (P15207 1-902): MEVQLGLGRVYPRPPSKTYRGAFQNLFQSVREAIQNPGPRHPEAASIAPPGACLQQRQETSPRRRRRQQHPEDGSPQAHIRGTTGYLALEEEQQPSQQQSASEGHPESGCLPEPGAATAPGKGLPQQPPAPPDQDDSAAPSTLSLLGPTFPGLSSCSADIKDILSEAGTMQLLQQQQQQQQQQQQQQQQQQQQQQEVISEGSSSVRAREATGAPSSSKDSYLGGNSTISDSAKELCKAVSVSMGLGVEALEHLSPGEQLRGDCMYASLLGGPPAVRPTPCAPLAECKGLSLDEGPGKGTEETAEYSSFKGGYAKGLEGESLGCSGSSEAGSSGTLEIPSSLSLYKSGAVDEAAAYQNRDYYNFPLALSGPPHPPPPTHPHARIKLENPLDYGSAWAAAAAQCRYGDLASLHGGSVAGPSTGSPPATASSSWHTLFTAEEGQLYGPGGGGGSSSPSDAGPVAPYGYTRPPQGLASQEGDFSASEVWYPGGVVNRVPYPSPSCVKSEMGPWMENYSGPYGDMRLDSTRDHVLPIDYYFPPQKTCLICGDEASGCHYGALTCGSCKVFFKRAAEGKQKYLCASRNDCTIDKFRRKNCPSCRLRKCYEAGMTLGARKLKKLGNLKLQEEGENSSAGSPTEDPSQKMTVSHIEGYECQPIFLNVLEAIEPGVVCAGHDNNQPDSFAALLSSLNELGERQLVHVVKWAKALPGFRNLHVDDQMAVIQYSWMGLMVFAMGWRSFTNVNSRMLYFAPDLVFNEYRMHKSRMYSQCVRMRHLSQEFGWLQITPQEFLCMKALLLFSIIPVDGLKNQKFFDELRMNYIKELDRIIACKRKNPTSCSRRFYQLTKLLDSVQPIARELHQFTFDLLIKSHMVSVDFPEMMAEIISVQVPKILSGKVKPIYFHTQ
Experimental: Rats were fed with Purina chow and tap water, ad libitum.
General chemicals (reagent grade), free fatty acids, fatty acid ethyl esters and radioinert steroids were obtained from Sigma Chemical Company (St. Louis, Mo.). ^3 H-dihydrotestosterone (5α-androstan-17β-ol-3-one; 60 Ci/mmol) was purchased from NEN Life Science Products (Boston, Mass.). 100% ethanol was used throughout for the preparations of all inhibitors and radioinert chemicals.
The animals were treated intraperitoneally with testosterone (400 μg/100 g body wt). […] The homogenate was centrifuged at 800×g for 20 minutes at 4° C. […] The resuspended pellet was homogenized on ice using a glass Dounce homogenizer until suspension became uniform.
Non-specific binding was determined using radioinert dihydrotestosterone (10^-5 M) in place of the inhibitor. The test tubes were incubated for 20 hours at 15° C.
After an overnight incubation, 1 ml of ice-cold nuclear buffer was added followed by centrifugation at 800×g for 10 minutes at 4° C. The nuclear pellets were washed 3 times by resuspension in 1 ml of the same ice-cold nuclear buffer, with mixing and centrifugation as above. After discarding the final supernatant, 1 ml of 100% ethanol was added to each pellet and then vortexed. Test tubes were placed in a 30° C. water bath for 40 minutes, with vortexing every 10 minutes and a final centrifugation at 800 g for 10 minutes. The ethanol extracts were decanted into vials containing 4 ml of scintillation fluid (Ecoscint A), shaken and counted.
The results, expressed as percent inhibition of ^3 H-Dihydrotestosterone binding, at two concentrations of putative active components, of the rat prostatic androgen receptor assay are below.

Type 2 5α-reductase = settings: cited from earlier work
Type 1 5α-reductase = settings: cited from earlier work
[2] = Table 8, read-out: Cyclooxygenase-1 IC50 (Table 8)
[3] = Table 8, read-out: Cyclooxygenase-2 IC50 (Table 8)
[4] = Table 8, read-out: 5 Lipoxygenase IC50 (Table 8)
[5] = read-out: Testosterone affinity, Km

T1 sequence (P79208 17-603): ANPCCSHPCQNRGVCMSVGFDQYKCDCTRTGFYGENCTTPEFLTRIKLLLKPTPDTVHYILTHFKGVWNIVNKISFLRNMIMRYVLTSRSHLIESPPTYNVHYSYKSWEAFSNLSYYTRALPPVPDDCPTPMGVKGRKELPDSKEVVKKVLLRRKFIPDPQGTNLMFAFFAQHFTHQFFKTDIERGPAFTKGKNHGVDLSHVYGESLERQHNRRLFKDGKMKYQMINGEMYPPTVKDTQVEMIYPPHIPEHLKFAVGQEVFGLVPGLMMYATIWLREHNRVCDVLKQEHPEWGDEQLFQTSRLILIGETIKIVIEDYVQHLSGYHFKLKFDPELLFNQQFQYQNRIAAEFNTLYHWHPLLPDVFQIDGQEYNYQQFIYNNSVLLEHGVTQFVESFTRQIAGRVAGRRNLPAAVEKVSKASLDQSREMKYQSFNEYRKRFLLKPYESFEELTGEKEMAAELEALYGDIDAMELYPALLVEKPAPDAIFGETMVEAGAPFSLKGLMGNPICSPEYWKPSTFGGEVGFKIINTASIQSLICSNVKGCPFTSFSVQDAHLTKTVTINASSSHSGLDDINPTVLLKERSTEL

SMILES | effect on relaxant effect of Sabal extracts (smooth muscle) | Cox2 activity (Cyclooxygenase-2) | IC50 (Cyclooxygenase-1; [2]) [µM] | Cox1 activity (Cyclooxygenase-1) | 5-Lipo activity (5-lipoxygenase) | other results
C[C@@H]1C[C@@H]([C@H](O)CC2CC(=O)NC(=O)C2)C(=O)[C@@H](C)C1 [Cycloheximide] | antagonized | – | – | – | – | –
CCCCCCCC/C=C\CCCCCCCC(=O)OCC [Ethyl Oleate] | – | Negative | > 300 | Negative | Negative | IC50 (Cyclooxygenase-2): > 300 µM; IC50 (5-lipoxygenase): > 30 µM
CCCCCCCCCCCCCCCC(=O)OCC [Ethyl Palmitate] | – | Negative | > 300 | Negative | Negative | IC50 (Cyclooxygenase-2; [3]): > 300 µM; IC50 (5-lipoxygenase; [4]): > 30 µM
CCCCC/C=C\C/C=C\CCCCCCCC(=O)OCC [Ethyl linoleate, ethyl linoleate] | – | Negative | > 300 | Negative | Negative | IC50 (Cyclooxygenase-2; [3]): > 300 µM; IC50 (5-lipoxygenase; [4]): > 30 µM
CC/C=C\C/C=C\C/C=C\CCCCCCCC(=O)OCC [Ethyl linolenate] | – | Negative | > 300 | Negative | Negative | IC50 (Cyclooxygenase-2; [3]): > 300 µM; IC50 (5-lipoxygenase; [4]): > 30 µM
CC(C)NC[C@H](O)COc1cccc2ccccc12 [L-propranolol] | potentiated | – | – | – | – | –
CCCCCCCCCCCCCC(=O)O [Myristic Acid] | – | Negative | > 300 | Negative | Negative | IC50 (Cyclooxygenase-2; [3]): > 300 µM; IC50 (5-lipoxygenase): > 30 µM
CCCCCCCCCCCCCC(=O)OCC [Myristic Ester, ethyl myristate] | – | Negative | – | Negative | Negative | –
CCCCCCCC/C=C\CCCCCCCC(=O)O [Oleic Acid] | – | Negative | > 300 | Negative | Negative | IC50 (Cyclooxygenase-2): > 300 µM; IC50 (5-lipoxygenase; [4]): > 30 µM
CCCCCCCCCCCCCCCC(=O)O [Palmitic Acid] | – | Negative | > 300 | Negative | Negative | IC50 (Cyclooxygenase-2; [3]): > 300 µM; IC50 (5-lipoxygenase; [4]): > 30 µM
C/C(=C\CO)CCC[C@H](C)CCC[C@H](C)CCCC(C)C [Phytol] | – | – | – | – | – | % Inh, individual experiment ([1]; 1.00E-04 M): 87.0% and 64% and 97% and 8.0% and 31% and 29% and 33%; % Inh, individual experiment ([1]; 1.00E-05 M): 0.0% and 76% and 10% and 4.0% and 26% and 38% and 41%; % Inh, Mean ([1]; 1.00E-05 M, SE 10.1): 32.0%; % Inh, individual experiment ([1]; 1.00E-06 M): 82.0% and 88% and 81% and 31% and 25% and 3.0% and 7.0%; % Inh, Mean ([1]; 1.00E-06 M, SE 14.12): 31.0%; % Inh, individual experiment ([1]; 3.00E-05 M): 89.0% and 90% and 32% and 25% and 9.0% and 20% and 21%; % Inh, Mean ([1]; 3.00E-05 M, SE 12.8): 28.5%; % Inh, individual experiment ([1]; 3.00E-06 M): 65% and 0.0% and 9.0% and 73%; % Inh, Mean ([1]; 3.00E-06 M, SE 12.5): 9.0%; % Inh, individual experiment ([1]; 3.00E-07 M): 14.0% and 2.0% and 0.0%; % Inh, Mean ([1]; 3.00E-07 M, SE 4.3): 2.0%; IC50 ([1]; Table 4, marker compounds, read-out: Androgen Receptor IC50 (Table 4)): 10 µM; inhibition at 10 µM ([1]; at 10 μM): 50%; IC50 ([1]; read-out: androgen receptor assay IC50): 10 µM
CC(C)NC[C@@H](O)COc1cccc2ccccc12 [R-propranolol] | inactive | – | – | – | – | –
NCCCC(N)(C(=O)O)C(F)F (stereo not shown) [a-difluoromethyl-ornithine] | not modified | – | – | – | – | –
Cc1c2oc3c(C)ccc(C(=O)N[C@@H]4C(=O)N[C@H](C(C)C)C(=O)N5CCC[C@H]5C(=O)N(C)CC(=O)N(C)[C@@H](C(C)C)C(=O)O[C@@H]4C)c3nc-2c(C(=O)N[C@@H]2C(=O)N[C@H](C(C)C)C(=O)N3CCC[C@H]3C(=O)N(C)CC(=O)N(C)[C@@H](C(C)C)C(=O)O[C@@H]2C)c(N)c1=O [actinomycin D] (I: T[dV]P[Sar][NMeV] / II: T[dV]P[Sar][NMeV]; ester I:1-I:C, II:1-II:C; linker I:N-II:N via Actinocin(9to1)) | antagonized the effect of the total lipidic extract without modifying that of the saponifiable extract | – | – | – | – | –
O=c1c(-c2ccc(O)cc2)coc2cc(O)cc(O)c12 [genistein] | not modified | – | – | – | – | –
O=C1CCN(c2ccccc2)N1 [phenidone, reference compound] | – | – | – | – | – | IC50 (5-lipoxygenase; reference compound, read-out: IC50, reference compounds, 5-lipoxygenase): 30 µM
C[C@]12CC[C@H]3[C@@H](CCC4=CC(=O)CC[C@@]43C)[C@@H]1CC[C@@H]2O [testosterone] | – | – | – | – | – | Testosterone, Vmax (Type 2 5α-reductase): 57.6 nmoles/10^6 cells/min; Km (Type 2 5α-reductase; [5]): 0.5 µM; Testosterone, Vmax (Type 1 5α-reductase): 4.2 nmoles/10^6 cells/min; Km (Type 1 5α-reductase; [5]): 2.9 µM
CC[C@H](CC[C@@H](C)[C@H]1CC[C@H]2[C@@H]3CC=C4C[C@@H](O)CC[C@]4(C)[C@H]3CC[C@]12C)C(C)C [β-sitosterol] | – | – | – | – | – | IC50 (Cyclooxygenase-2): > 300 µM; IC50 (Cyclooxygenase-1): > 300 µM; IC50 (5-lipoxygenase): > 30 µM
